{
  "source": "patent US20240208992A1",
  "about": "“MACROCYCLES AS CFTR MODULATORS” (Idorsia Pharmaceuticals Ltd, priority 2021, published 2024)",
  "molecular_target": "human F508del-CFTR (Homo sapiens, UniProt P13569, DEL508-508)",
  "sequence (P13569 with tags, fused parts or gaps DEL508-508)": "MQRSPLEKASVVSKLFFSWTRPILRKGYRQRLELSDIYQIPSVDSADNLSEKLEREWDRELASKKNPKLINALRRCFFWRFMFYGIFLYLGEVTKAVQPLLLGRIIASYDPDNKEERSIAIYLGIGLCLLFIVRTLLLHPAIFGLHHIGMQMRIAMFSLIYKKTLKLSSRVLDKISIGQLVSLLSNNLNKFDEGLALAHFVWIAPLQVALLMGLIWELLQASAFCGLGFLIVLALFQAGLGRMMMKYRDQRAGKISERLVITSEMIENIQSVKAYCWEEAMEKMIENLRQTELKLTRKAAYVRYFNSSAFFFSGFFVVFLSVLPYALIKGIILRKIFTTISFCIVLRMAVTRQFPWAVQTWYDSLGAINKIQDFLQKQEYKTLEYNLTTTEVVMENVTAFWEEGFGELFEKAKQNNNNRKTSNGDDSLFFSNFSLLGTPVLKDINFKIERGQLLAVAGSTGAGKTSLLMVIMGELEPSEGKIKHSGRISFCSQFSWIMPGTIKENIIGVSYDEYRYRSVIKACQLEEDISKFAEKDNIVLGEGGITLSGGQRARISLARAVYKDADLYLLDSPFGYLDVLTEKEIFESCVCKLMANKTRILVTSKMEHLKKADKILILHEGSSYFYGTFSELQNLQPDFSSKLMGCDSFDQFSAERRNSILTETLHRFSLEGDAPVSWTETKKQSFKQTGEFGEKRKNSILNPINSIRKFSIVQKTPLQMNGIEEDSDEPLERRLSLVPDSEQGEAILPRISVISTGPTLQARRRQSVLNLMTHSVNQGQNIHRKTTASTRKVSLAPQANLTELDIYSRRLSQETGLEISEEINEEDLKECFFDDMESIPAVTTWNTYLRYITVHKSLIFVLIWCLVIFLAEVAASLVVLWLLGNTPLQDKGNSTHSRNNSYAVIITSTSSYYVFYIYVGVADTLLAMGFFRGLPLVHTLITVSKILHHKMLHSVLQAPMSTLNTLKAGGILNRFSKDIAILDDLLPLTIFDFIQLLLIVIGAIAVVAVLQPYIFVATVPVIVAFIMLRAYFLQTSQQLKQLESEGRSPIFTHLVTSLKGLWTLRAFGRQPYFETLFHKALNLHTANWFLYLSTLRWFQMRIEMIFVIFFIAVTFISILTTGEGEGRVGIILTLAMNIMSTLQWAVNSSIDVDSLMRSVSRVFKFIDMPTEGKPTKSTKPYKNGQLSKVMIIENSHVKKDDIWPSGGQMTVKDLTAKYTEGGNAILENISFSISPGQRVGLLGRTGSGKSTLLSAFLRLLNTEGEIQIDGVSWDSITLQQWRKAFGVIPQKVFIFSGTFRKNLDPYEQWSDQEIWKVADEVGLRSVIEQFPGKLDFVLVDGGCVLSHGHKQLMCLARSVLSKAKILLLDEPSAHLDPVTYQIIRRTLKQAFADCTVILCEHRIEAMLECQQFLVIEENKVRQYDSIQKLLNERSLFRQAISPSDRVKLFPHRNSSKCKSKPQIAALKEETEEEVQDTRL",
  "assay": "F508del-CFTR cell surface expression (corrector activity), DiscoveRx ß-galactosidase complementation chemiluminescence assay in recombinant U2OS cell line;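 also: U2OS cells co-expressing ProLink-tagged F508del-CFTR and a membrane-anchored enzyme acceptor, where more surface CFTR restores β-galactosidase activity measured by chemiluminescence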",
  "conditions": "U2OS cell line, 16h compound incubation; for EC50: EC50, F508del-CFTR cell surface expression, geomean values; for Emax: U2OS, in relation to the Emax of the corrector lumacaftor (=100%), arithmetic mean values",
  "data": [
    {"smiles": "CC(C)C[C@H]1C(=O)N2CCCC[C@@H]2C(=O)N[C@H](Cc2ccccc2)COc2cnc3ccccc3c2C(=O)N[C@H](C(=O)NCCc2cnn(C3CC3)c2)CC(=O)N1C", "note": "[Example 124, (9S,13S,19aR,22R)-22-benzyl-N-(2-(1-cyclopropyl-1H-pyrazol-4-yl)ethyl)-13-isobutyl-12-methyl-7,11,14,20-tetraoxo-7,8,9,10,11,12,13,14,17,18,19,19a,20,21,22,23-hexadecahydro-16H-pyrido[2′,1′:6,7][1]oxa[4,7,10,14]tetraazacycloheptadecino[17,16-c]quinoline-9-carboxamide]", "values": [
      {"measurement": "EC50", "result": 382, "unit": "nM"},
      {"measurement": "Emax", "result": 347, "unit": "%"}
    ]},
    {"smiles": "Cc1cc(CCNC(=O)[C@@H]2CC(=O)N(C)[C@@H](CC(C)C)C(=O)N3CCCC[C@@H]3C(=O)N[C@H](Cc3ccccc3)COc3cnc4ccccc4c3C(=O)N2)ccc1-n1nccn1", "note": "[Example 125, (9S,13S,19aR,22R)-22-benzyl-13-isobutyl-12-methyl-N-(3-methyl-4-(2H-1,2,3-triazol-2-yl)phenethyl)-7,11,14,20-tetraoxo-7,8,9,10,11,12,13,14,17,18,19,19a,20,21,22,23-hexadecahydro-16H-pyrido[2′,1′:6,7][1]oxa[4,7,10,14]tetraazacycloheptadecino[17,16-c]quinoline-9-carboxamide]", "values": [
      {"measurement": "EC50", "result": 271, "unit": "nM"},
      {"measurement": "Emax", "result": 229, "unit": "%"}
    ]},
    {"smiles": "CC(C)C[C@H]1C(=O)N2CCCC[C@@H]2C(=O)N[C@H](Cc2ccccc2)COc2cnc3ccccc3c2C(=O)N[C@H](C(=O)NCCc2cc(F)cc(F)c2)CC(=O)N1C", "note": "[Example 126, (9S,13S,19aR,22R)-22-benzyl-N-(3,5-difluorophenethyl)-13-isobutyl-12-methyl-7,11,14,20-tetraoxo-7,8,9,10,11,12,13,14,17,18,19,19a,20,21,22,23-hexadecahydro-16H-pyrido[2′,1′:6,7][1]oxa[4,7,10,14]tetraazacycloheptadecino[17,16-c]quinoline-9-carboxamide]", "values": [
      {"measurement": "EC50", "result": 261, "unit": "nM"},
      {"measurement": "Emax", "result": 230, "unit": "%"}
    ]},
    {"smiles": "CC(C)C[C@H]1C(=O)N2CCCC[C@@H]2C(=O)N[C@H](Cc2ccccc2)COc2cnc3ccccc3c2C(=O)N[C@H](C(=O)NCCc2nc(C3CC3)no2)CC(=O)N1C", "note": "[Example 127, (9S,13S,19aR,22R)-22-benzyl-N-(2-(3-cyclopropyl-1,2,4-oxadiazol-5-yl)ethyl)-13-isobutyl-12-methyl-7,11,14,20-tetraoxo-7,8,9,10,11,12,13,14,17,18,19,19a,20,21,22,23-hexadecahydro-16H-pyrido[2′,1′:6,7][1]oxa[4,7,10,14]tetraazacycloheptadecino[17,16-c]quinoline-9-carboxamide]", "values": [
      {"measurement": "EC50", "result": 107, "unit": "nM"},
      {"measurement": "Emax", "result": 311, "unit": "%"}
    ]},
    {"smiles": "CC(C)C[C@H]1C(=O)N2CCCC[C@@H]2C(=O)N[C@H](Cc2ccccc2)COc2cnc3ccccc3c2C(=O)N[C@H](C(=O)NCCc2noc(C3CCC3)n2)CC(=O)N1C", "note": "[Example 128, (9S,13S,19aR,22R)-22-benzyl-N-(2-(5-cyclobutyl-1,2,4-oxadiazol-3-yl)ethyl)-13-isobutyl-12-methyl-7,11,14,20-tetraoxo-7,8,9,10,11,12,13,14,17,18,19,19a,20,21,22,23-hexadecahydro-16H-pyrido[2′,1′:6,7][1]oxa[4,7,10,14]tetraazacycloheptadecino[17,16-c]quinoline-9-carboxamide]", "values": [
      {"measurement": "EC50", "result": 190, "unit": "nM"},
      {"measurement": "Emax", "result": 292, "unit": "%"}
    ]},
    {"smiles": "Cc1cn(C)nc1CCNC(=O)[C@@H]1CC(=O)N(C)[C@@H](CC(C)C)C(=O)N2CCCC[C@@H]2C(=O)N[C@H](Cc2ccccc2)COc2cnc3ccccc3c2C(=O)N1", "note": "[Example 129, (9S,13S,19aR,22R)-22-benzyl-N-(2-(1,4-dimethyl-1H-pyrazol-3-yl)ethyl)-13-isobutyl-12-methyl-7,11,14,20-tetraoxo-7,8,9,10,11,12,13,14,17,18,19,19a,20,21,22,23-hexadecahydro-16H-pyrido[2′,11:6,7][1]oxa[4,7,10,14]tetraazacycloheptadecino[17,16-c]quinoline-9-carboxamide]", "values": [
      {"measurement": "EC50", "result": 406, "unit": "nM"},
      {"measurement": "Emax", "result": 264, "unit": "%"}
    ]}
  ]
}
